Assay results as given in patent publication US20260091082A1, “CYCLIC PEPTIDE DERIVATIVE COMPOSITION FOR TREATING OR PREVENTING EYE DISEASE” (DKS Co. Ltd., priority 2022, published 2026).
Values joined by “and” are separate entries in the source; they are usually repeats but may differ in a detail not shown here. Identical values can stand only once. “Also recorded” adds a separate entry of the source.

System: anterior chamber aqueous humor pressure load rat model
Assay: Retinal thickness (IPL, INL, ONL) in retinal damage model induced by anterior chamber aqueous humor pressure load
Assay type: in vivo, Rat; Slc: SD
Details: for Inner plexiform layer (IPL) thickness compared with the control group, in words: 300 to 900 μm from the optic disk
Protocol: • Name: Compound 9 • Source: Synthesized in the above Examples • Used amount: 0.4 mL (50 mg/mL solution) • Storage conditions: Freezing, light shielding
Method for preparing test substance (1 mg/mL): A high concentration solution prepared at 50 mg/mL was diluted 50 times with a medium to prepare a 1 mg/mL administration solution.
• Name: MK-801 • Distributor: SIGMA-ALDRICH • Use amount: 0.0501 g • Storage condition: refrigerated (2° C. to 8° C.)
Method for preparing positive control substance (10 mg/mL): 0.0501 g was weighed out and made up to a total volume of 5 mL with a control substance (physiological saline).
• Species and strains: Rat; Slc: SD • Number of animals on arrival and sex: 50 males • Age in weeks at arrival: 6 weeks old • Body weight range at arrival: 147.2 to 170.0 g • Source: Japan SLC, Inc.
Grouping was performed two days before the first creation of the retinal damage model induced by an anterior chamber aqueous humor pressure load. Using the daily body weight as an index, stratified random allocation was performed using SAS (Ver. 9.3, SAS Institute Japan Ltd.) and EXSUS (Ver. 8.0, CAC Croit Corporation) so that an average value of the body weights of each group was approximately uniform.
• Administration route: Eyedrop administration, intravenous administration • Administration method (eyedrop): Eyedrop administration was performed on a treated eye (right eye) of a rat using a micropipette 4 times a day (at intervals of 1.5 hours or more). • Administration method (intravenous): The amount of administration solution, calculated from the body weight on the day of administration, was administered from the tail vein using a syringe and an injection needle about 30 minutes before ischemic load. • Time of administration: Administration was performed according to the following schedule.
1. 10 mg/kg xylazine hydrochloride was intramuscularly administered on the model creation day (day 0). A rat was placed in an anesthesia box and subjected to general anesthesia with isoflurane (5%, oxygen:nitrous oxide=1:3). When anesthesia was effective, the rat was taken out of the anesthesia box, an inhalation anesthetic mask was worn, and anesthesia was maintained with isoflurane (1% to 5%, oxygen nitrous oxide=1:3).
2. The body temperature was maintained at 37° C. with a warming mat, and a mydrin P ophthalmic solution was instilled in the right eye (treated eye) of the rat to dilate the pupil, then the cravit ophthalmic solution 1.5% (Santen Pharmaceutical Co., Ltd.) was instilled.
3. A bottle of an IV bag containing physiological saline was previously suspended so that a water surface was 155 cm (100 mmHg or more) higher than the eye of the rat. The IV bag was connected to a pediatric infusion set (Terumo Corporation), a 27 G injection needle thereof was inserted into and fixed to the anterior chamber while slightly dripping the liquid from a needle tip. The model was created in the light phase (6:00 to 18:00) in consideration of the diurnal variation of the intraocular pressure.
4. After the needle was inserted into the anterior chamber, pressure (100 mmHg or more) was loaded and maintained in the anterior chamber by associating the reflux system.
5. After an ischemic load for 45 minutes, the injection needle and the like were removed, the inhalation anesthetic mask was removed, and the rat was sufficiently woken up under a warming mat, and then returned to the cage.
6. For 2 days after surgery, 10 mg/kg xylazine hydrochloride was intramuscularly administered as an analgesic for the purpose of alleviating the pain after the treatment.
1. Fourteen days after model creation, general anesthesia was performed with isoflurane (5%, oxygen:nitrous oxide=1:3), euthanasia was then performed by exsanguination, a suture was placed as a marker at the 12 o'clock position of the ocular conjunctiva, and eyeball enucleation was performed.
2. […]

[1] = compound 9, 1 mg/mL eye drop, right eye, individual animals 301-310
[2] = test groups 2 and 3 (test substance groups)

CC[C@@]1(C)Oc2cc(ccc2O)C[C@H](NC)C(=O)N[C@@H](C(C)C)C(=O)N[C@@H]1C(=O)N[C@@H](CC(=O)O)C(=O)O [Compound 9]
Thickness of IPL (μm), Distance from Optic Disk 300 μm, Mean (compound 9 (pre), 1 mg/mL eye drop, right eye, 300 μm from optic disk, mean per animal, listed as compond 9): 28.230 μm and 31.630 μm and 36.376 μm and 29.236 μm and 31.100 μm and 32.951 μm and 33.216 μm and 29.810 μm and 33.996 μm and 26.517 μm
Thickness of INL (μm), Distance from Optic Disk 600 μm (compound 9 (pre), 1 mg/mL eye drop, right eye, 600 μm from optic disk, individual measurements per animal): 33.065 μm and 33.351 μm and 31.150 μm and 27.855 μm and 34.827 μm and 31.493 μm and 24.207 μm and 30.656 μm and 26.506 μm and 25.323 μm and 34.640 μm and 33.153 μm and 30.688 μm and 31.462 μm and 25.000 μm and 25.819 μm and 36.789 μm and 36.469 μm and 35.907 μm and 35.051 μm and 38.781 μm and 30.223 μm and 27.431 μm and 28.512 μm and 22.710 μm and 34.691 μm and 32.298 μm and 28.240 μm and 38.410 μm and 32.790 μm
Thickness of IPL (μm), Distance from Optic Disk 600 μm (compound 9 (pre), 1 mg/mL eye drop, right eye, 600 μm from optic disk, individual measurements per animal, listed as compond 9): 35.272 μm and 36.967 μm and 39.787 μm and 38.516 μm and 42.129 μm and 44.421 μm and 35.566 μm and 35.907 μm and 34.333 μm and 35.134 μm and 37.963 μm and 38.006 μm and 42.772 μm and 42.744 μm and 37.116 μm and 32.671 μm and 45.118 μm and 45.778 μm and 34.473 μm and 36.322 μm and 37.125 μm and 37.847 μm and 44.472 μm and 36.393 μm and 35.013 μm and 40.678 μm and 44.362 μm and 37.009 μm and 45.280 μm and 36.469 μm
Thickness of INL (μm), Distance from Optic Disk 600 μm, Mean (compound 9 (pre), 1 mg/mL eye drop, right eye, 600 μm from optic disk, mean per animal): 35.066 μm and 29.743 μm and 31.250 μm and 27.792 μm and 24.846 μm and 34.161 μm and 31.483 μm and 26.353 μm and 37.223 μm and 34.583 μm
Thickness of IPL (μm), Distance from Optic Disk 600 μm, Mean (compound 9 (pre), 1 mg/mL eye drop, right eye, 600 μm from optic disk, mean per animal, listed as compond 9): 36.455 μm and 38.717 μm and 43.674 μm and 35.955 μm and 34.827 μm and 38.882 μm and 43.293 μm and 35.599 μm and 45.392 μm and 35.755 μm
Thickness of INL (μm), Distance from Optic Disk 900 μm (compound 9 (pre), 1 mg/mL eye drop, right eye, 900 μm from optic disk, individual measurements per animal): 34.804 μm and 34.579 μm and 36.245 μm and 30.909 μm and 31.452 μm and 30.862 μm and 27.037 μm and 29.926 μm (2×) and 22.638 μm and 25.416 μm and 27.482 μm and 24.116 μm and 23.512 μm and 24.261 μm and 34.939 μm and 35.346 μm and 31.197 μm and 28.785 μm and 32.162 μm and 30.368 μm and 28.858 μm and 27.378 μm and 29.877 μm and 36.469 μm and 34.623 μm and 36.346 μm and 31.402 μm and 31.035 μm and 29.653 μm
Thickness of IPL (μm), Distance from Optic Disk 900 μm (compound 9 (pre), 1 mg/mL eye drop, right eye, 900 μm from optic disk, individual measurements per animal, listed as compond 9): 36.789 μm and 36.607 μm and 39.836 μm and 44.120 μm and 43.136 μm and 43.354 μm and 44.421 μm and 42.075 μm and 41.663 μm and 37.132 μm and 35.896 μm and 35.907 μm and 36.540 μm and 39.019 μm and 40.323 μm and 10.804 μm and 39.318 μm and 42.252 μm and 44.289 μm and 46.476 μm and 47.334 μm and 41.468 μm and 39.312 μm and 40.445 μm and 49.477 μm and 48.242 μm and 50.923 μm and 38.230 μm and 37.912 μm and 42.098 μm
Thickness of INL (μm), Distance from Optic Disk 900 μm, Mean (compound 9 (pre), 1 mg/mL eye drop, right eye, 900 μm from optic disk, mean per animal): 35.209 μm and 31.074 μm and 28.963 μm and 25.179 μm and 23.963 μm and 33.827 μm and 30.438 μm and 28.704 μm and 35.813 μm and 30.697 μm
Thickness of IPL (μm), Distance from Optic Disk 900 μm, Mean (compound 9 (pre), 1 mg/mL eye drop, right eye, 900 μm from optic disk, mean per animal, listed as compond 9): 37.744 μm and 43.537 μm and 42.720 μm and 36.312 μm and 38.627 μm and 40.791 μm and 46.033 μm and 40.408 μm and 49.547 μm and 39.413 μm
Thickness of ONL, distance from optic disk 300 μm (single measurement) [1]: 29.809 μm and 32.509 μm and 28.214 μm and 43.038 μm and 41.873 μm and 42.494 μm and 36.113 μm and 33.931 μm and 32.522 μm and 36.780 μm and 37.800 μm and 37.520 μm and 42.742 μm and 39.019 μm and 43.913 μm and 40.612 μm and 41.912 μm and 42.252 μm and 45.276 μm and 46.187 μm (2×) and 47.148 μm and 61.386 μm and 56.945 μm and 55.989 μm and 51.520 μm and 53.774 μm and 52.512 μm and 40.451 μm and 43.373 μm
Thickness of ONL, distance from optic disk 600 μm (single measurement) [1]: 30.220 μm and 32.139 μm and 47.765 μm and 48.521 μm (2×) and 35.360 μm and 35.504 μm and 40.331 μm and 37.009 μm and 49.431 μm and 49.964 μm and 42.863 μm and 40.883 μm and 44.362 μm and 46.081 μm and 44.179 μm and 42.769 μm and 44.033 μm and 41.550 μm and 42.129 μm and 31.379 μm and 50.234 μm and 36.932 μm and 39.277 μm and 47.914 μm and 40.524 μm and 43.548 μm and 48.975 μm and 41.515 μm and 45.970 μm
Thickness of ONL, distance from optic disk 900 μm (single measurement) [1]: 26.908 μm and 28.742 μm and 28.226 μm and 52.295 μm and 46.680 μm and 52.512 μm and 29.438 μm and 34.522 μm and 34.086 μm and 36.727 μm and 35.966 μm and 41.192 μm and 41.663 μm and 39.411 μm and 42.337 μm and 37.593 μm and 40.812 μm and 38.516 μm and 42.098 μm and 44.443 μm and 46.165 μm and 42.932 μm and 37.619 μm and 42.252 μm and 39.713 μm and 39.071 μm and 42.321 μm and 37.664 μm and 38.550 μm and 42.169 μm
Inner plexiform layer (IPL) thickness compared with the control group, in words (test group 2 (preventive: eye drop on the 2 days before model creation)): statistically significant differences were observed at all measurement sites; also recorded: statistically significant effect of suppressing retinal damage by aqueous humor pressure load was observed at all measurement sites
Inner plexiform layer (IPL) thickness compared with the control group, in words (test group 3 (therapeutic: eye drop for 13 days from the day after model creation)): statistically significant differences were observed at all measurement sites; also recorded: statistically significant effect of suppressing retinal damage by aqueous humor pressure load was observed at all measurement sites; also recorded: almost equivalent to that of the MK-801
Inner nuclear layer (INL) thickness compared with the control group, in words [2]: no obvious change was observed
Outer nuclear layer (ONL) thickness compared with the control group, in words [2]: no obvious change was observed
